What was measured:
[1] = Measurement of fluorescent property of compound; format: physicochemical; settings: 5 μM DMSO solution
Experimental: The excitation wavelength and fluorescence wavelength of the compound were measured by a FL4500 spectrofluorometric measuring machine manufactured by Hitachi High-Technologies Corporation.

[2] = tested on: Prostatic cancer cells, PC-3; test: Cancer cell inhibitory (growth suppressive) action against prostatic cancer cells, CellTiter-Glo viable cell count; format: cell-based; settings: PC-3, 10 μg/mL, 24 hours
Experimental: Prostatic cancer cells, PC-3, were pre-cultured in RPMI1640 medium containing 10% FBS at 37° C. in a 5% CO2 ambient. Thereafter, 4,000 cells were seeded per well of a 96-well plate and further cultured for 24 hours. Subsequently, Compound (1) was added to the medium so as to obtain a final concentration of 10 μg/mL and cultured at 37° C. for 24 hours in a 5% CO2 ambient. The cultured cells were analyzed for viable cell count according to Cell Titer-Glo Luminescent Cell Viability Assay (manufactured by Promega KK.).
Viable cell count was analyzed in the same manner as in Experimental Example 24 except that Compound (1) of Experimental Example 24 was changed to each compound shown in Table 2.
Viable cell count was analyzed in the same manner as in Experimental Example 24 except that Compound (1) of Experimental Example 24 was changed to each of Comparative compounds 1 to 4, to obtain growth rates.
Note that the growth rate used in Examples refers to the rate (expressed by percentage) of viable cell count after culture relative to the number of cells at the initiation of cell culture. Evaluation criteria are the same as in the above experiments.

[3] = tested on: Human pancreas cancer cells, KLM-1; test: Cancer cell inhibitory (growth suppressive) action against pancreatic cancer cells, CellTiter-Glo viable cell count; settings: KLM-1, 10 μg/mL, 24 hours
Experimental: Human pancreas cancer cells, KLM-1, were pre-cultured in RPMI1640 medium containing 10% FBS at 37° C. in a 5% CO2 ambient. Thereafter, 4,000 cells were seeded per well of a 96-well plate and further cultured for 24 hours. […] The cultured cells were analyzed for viable cell count according to CellTiter-Glo Luminescent Cell Viability Assay (manufactured by Promega KK.).
Evaluation of cancer cell inhibition against the pancreatic cancer cells (KLM-1) (growth suppression) was made based on the following criteria. Note that the growth rate used in Examples refers to the rate (expressed by percentage) of viable cell count after culture relative to the number of cells at the initiation of cell culture.

[4] = tested on: Human chronic myelocytic leukemia cells, K562, ALDH (+) fraction (cancer stem cells); test: Cancer stem-cell selective inhibitory action against chronic myelocytic leukemia cells, ALDH (+) fraction; format: cell-based; settings: K562, 10 μg/ml, 24 hours
Experimental: Human chronic myelocytic leukemia cells, K562, were pre-cultured in RPMI1640 medium containing 10% FBS at 37° C. in a 5% CO2 ambient. Then, a fraction containing 80% or more of cancer stem cells was extracted by use of a cancer stem cell marker, ALDEFLUOR reagent (manufactured by VERITAS Corporation) and FACSAria flow cytometry (manufactured by Nippon Becton, Dickinson and Company). […] The cultured cells were analyzed for viable cell count according to CellTiter-Glo Luminescent Cell Viability Assay (manufactured by Promega KK.). […] Note that hereinafter, an ALDEFLUOR reagent positive fraction (deemed as cancer stem cells) is represented by ALDH (+), whereas an ALDEFLUOR reagent negative fraction (not deemed as cancer stem cells) is represented by ALDH (−), in some cases.
Further, the growth suppressive effect of cancer stem cells was evaluated based on the following criteria. Note that the growth rate in Examples is a value obtained by dividing viable cell count after culture by the number of cells at the initiation time of culture.

| SMILES | Excitation wavelength λex [1] [nm] | Fluorescence wavelength λem [1] [nm] | Cancer cell growth rate (%) [2] [%] | Evaluation (cancer cell growth rate) [2] | Cancer cell growth rate (%) [3] [%] | Evaluation (cancer cell growth rate) [3] | ALDH(+) Superiority evaluation [4] | ALDH(+)/ALDH(−) [4] |
| --- | --- | --- | --- | --- | --- | --- | --- | --- |
| CCN1/C(=C\C=C\c2sc3ccccc3[n+]2CC)Sc2ccccc21 [Compound 1] | 485 | 575 | 13.8 | A (Cancer cell growth rate is less than 20%) | 31.9 | B (Cancer cell growth rate is 20% or more and less than 50%) | B (The value of the growth rate of ALDH (+)/the growth rate of ALDH (−) is 0.8 or more and less than 0.95) | 0.87 |
| CCN1/C(=C\C(C)=C\c2sc3ccccc3[n+]2CC)Sc2ccccc21 [Compound 5] | 560 | 628 | 15.0 | A (Cancer cell growth rate is less than 20%) | 6.4 | A (Cancer cell growth rate is less than 20%) | A (The value of the growth rate of ALDH (+)/the growth rate of ALDH (−) is less than 0.8) | 0.79 |
| CCCN1\C(=C/C=C/C=C/C2=[N+](CCC)c3ccccc3C2(C)C)C(C)(C)c2ccccc21 [Compound 27] | 650 | 675 | 7.7 | A (Cancer cell growth rate is less than 20%) | 6.0 | A (Cancer cell growth rate is less than 20%) | A (The value of the growth rate of ALDH (+)/the growth rate of ALDH (−) is less than 0.8) | 0.56 |
| CCCCN1/C(=C/C=C2\CCCC(/C=C/C3=[N+](CCCC)c4ccccc4C3(C)C)=C2Cl)C(C)(C)c2ccccc21 [Compound 43] | 797 | 816 | 12.3 | A (Cancer cell growth rate is less than 20%) | 35.6 | B (Cancer cell growth rate is 20% or more and less than 50%) |  |  |
| CCN1C=C/C(=C/C=C/c2cc[n+](CC)c3ccccc23)c2ccccc21 [Compound 46] | 679 | 715 | 17.7 | A (Cancer cell growth rate is less than 20%) | 16.7 | A (Cancer cell growth rate is less than 20%) |  |  |
| CCN1/C(=C\C=C\c2ccc3ccccc3[n+]2CC)C=Cc2ccccc21.[I-] [Compound 47] | 615 | 637 | 13.8 | A (Cancer cell growth rate is less than 20%) | 8.6 | A (Cancer cell growth rate is less than 20%) |  |  |
| CN1/C(=C/C=C2\CCCC(/C=C/C3=[N+](C)c4ccc5ccccc5c4C3(C)C)=C2Cl)C(C)(C)c2c1ccc1ccccc21 [Compound 49] | 830 | 831 | 5.3 | A (Cancer cell growth rate is less than 20%) | 12.0 | A (Cancer cell growth rate is less than 20%) |  |  |
